Data published in ChEMBL document CHEMBL4177608, “Design and synthesis of benzimidazole-based Rho kinase inhibitors for the treatment of glaucoma” (Bioorg Med Chem, 2017).
≈ marks a conversion by molar mass, not a printed value.

Tests used:
[1] = 1-Octanol/water partition coefficient, log P of compound at 2 mg after 24 hrs by spectrophotometry based shake flask method; assay type: physicochemical
[2] = Antioxidant activity assessed as DPPH free radical scavenging activity at 5 ug/ml after 30 mins by spectrophotometric analysis; assay type: functional
[3] = Antioxidant activity assessed as DPPH free radical scavenging activity at 25 ug/ml after 30 mins by spectrophotometric analysis; assay type: functional
[4] = Antioxidant activity assessed as DPPH free radical scavenging activity at 50 ug/ml after 30 mins by spectrophotometric analysis; assay type: functional
[5] = Antioxidant activity assessed as DPPH free radical scavenging activity at 100 ug/ml after 30 mins by spectrophotometric analysis; assay type: functional
[6] = Antioxidant activity assessed as DPPH free radical scavenging activity at 150 ug/ml after 30 mins by spectrophotometric analysis; assay type: functional
[7] = Antioxidant activity assessed as DPPH free radical scavenging activity at 200 ug/ml after 30 mins by spectrophotometric analysis; assay type: functional
[8] = Antioxidant activity assessed as DPPH free radical scavenging activity after 30 mins by spectrophotometric analysis; assay type: functional
Rattus norvegicus [9] = organism: Rattus norvegicus; assay: Reduction in intraocular pressure in Wistar rat model of dexamethasone-induced elevated IOP assessed as change in intraocular pressure at 1 % w/v after 0.5 hrs by tonometry (reference value: 0%); assay type: functional; set-up: scale not given: the % may be the effect or the level left
Rattus norvegicus [10] = organism: Rattus norvegicus; assay: Reduction in intraocular pressure in Wistar rat model of dexamethasone-induced elevated IOP assessed as change in intraocular pressure at 1 % w/v after 1 hr by tonometry (reference value: 0%); assay type: functional; set-up: scale not given: the % may be the effect or the level left
Rattus norvegicus [11] = organism: Rattus norvegicus; assay: Reduction in intraocular pressure in Wistar rat model of dexamethasone-induced elevated IOP assessed as change in intraocular pressure at 1 % w/v after 1.5 hrs by tonometry (reference value: 0%); assay type: functional; set-up: scale not given: the % may be the effect or the level left
Rattus norvegicus [12] = organism: Rattus norvegicus; assay: Reduction in intraocular pressure in Wistar rat model of dexamethasone-induced elevated IOP assessed as change in intraocular pressure at 1 % w/v after 2 hrs by tonometry (reference value: 0%); assay type: functional; set-up: scale not given: the % may be the effect or the level left
Rattus norvegicus [13] = organism: Rattus norvegicus; assay: Reduction in intraocular pressure in Wistar rat model of dexamethasone-induced elevated IOP assessed as change in intraocular pressure at 1 % w/v after 2.5 hrs by tonometry (reference value: 0%); assay type: functional; set-up: scale not given: the % may be the effect or the level left
Rattus norvegicus [14] = organism: Rattus norvegicus; assay: Reduction in intraocular pressure in Wistar rat model of dexamethasone-induced elevated IOP assessed as change in intraocular pressure at 1 % w/v after 3 hrs by tonometry (reference value: 0%); assay type: functional; set-up: scale not given: the % may be the effect or the level left
Rattus norvegicus [15] = organism: Rattus norvegicus; assay: Reduction in intraocular pressure in Wistar rat model of dexamethasone-induced elevated IOP assessed as change in intraocular pressure at 1 % w/v after 4 hrs by tonometry (reference value: 0%); assay type: functional; set-up: scale not given: the % may be the effect or the level left
Rattus norvegicus [16] = organism: Rattus norvegicus; assay: Reduction in intraocular pressure in Wistar rat model of dexamethasone-induced elevated IOP assessed as change in intraocular pressure at 1 % w/v after 5 hrs by tonometry (reference value: 0%); assay type: functional; set-up: scale not given: the % may be the effect or the level left
Rattus norvegicus [17] = organism: Rattus norvegicus; assay: Reduction in intraocular pressure in Wistar rat model of dexamethasone-induced elevated IOP assessed as change in intraocular pressure at 1 % w/v after 6 hrs by tonometry (reference value: 0%); assay type: functional; set-up: scale not given: the % may be the effect or the level left
Rattus norvegicus [18] = organism: Rattus norvegicus; assay: Reduction in intraocular pressure in Wistar rat model of dexamethasone-induced elevated IOP assessed as change in intraocular pressure in contralateral eye at 1 % w/v after 0.5 hrs by tonometry (reference value: 0%); assay type: ADME, organism-based; set-up: scale not given: the % may be the effect or the level left; details: in vivo, topical_or_ocular
Rattus norvegicus [19] = organism: Rattus norvegicus; assay: Reduction in intraocular pressure in Wistar rat model of dexamethasone-induced elevated IOP assessed as change in intraocular pressure in contralateral eye at 1 % w/v after 1 hr by tonometry (reference value: 0%); assay type: ADME, organism-based; set-up: scale not given: the % may be the effect or the level left; details: in vivo, topical_or_ocular
Rattus norvegicus [20] = organism: Rattus norvegicus; assay: Reduction in intraocular pressure in Wistar rat model of dexamethasone-induced elevated IOP assessed as change in intraocular pressure in contralateral eye at 1 % w/v after 1.5 hrs by tonometry (reference value: 0%); assay type: ADME, organism-based; set-up: scale not given: the % may be the effect or the level left; details: in vivo
Rattus norvegicus [21] = organism: Rattus norvegicus; assay: Reduction in intraocular pressure in Wistar rat model of dexamethasone-induced elevated IOP assessed as change in intraocular pressure in contralateral eye at 1 % w/v after 2 hrs by tonometry (reference value: 0%); assay type: ADME, organism-based; set-up: scale not given: the % may be the effect or the level left; details: in vivo
Rattus norvegicus [22] = organism: Rattus norvegicus; assay: Reduction in intraocular pressure in Wistar rat model of dexamethasone-induced elevated IOP assessed as change in intraocular pressure in contralateral eye at 1 % w/v after 2.5 hrs by tonometry (reference value: 0%); assay type: ADME, organism-based; set-up: scale not given: the % may be the effect or the level left; details: in vivo
Rattus norvegicus [23] = organism: Rattus norvegicus; assay: Reduction in intraocular pressure in Wistar rat model of dexamethasone-induced elevated IOP assessed as change in intraocular pressure in contralateral eye at 1 % w/v after 3 hrs by tonometry (reference value: 0%); assay type: ADME, organism-based; set-up: scale not given: the % may be the effect or the level left; details: in vivo
Rattus norvegicus [24] = organism: Rattus norvegicus; assay: Reduction in intraocular pressure in Wistar rat model of dexamethasone-induced elevated IOP assessed as change in intraocular pressure in contralateral eye at 1 % w/v after 4 hrs by tonometry (reference value: 0%); assay type: ADME, organism-based; set-up: scale not given: the % may be the effect or the level left; details: in vivo
Rattus norvegicus [25] = organism: Rattus norvegicus; assay: Reduction in intraocular pressure in Wistar rat model of dexamethasone-induced elevated IOP assessed as change in intraocular pressure in contralateral eye at 1 % w/v after 5 hrs by tonometry (reference value: 0%); assay type: ADME, organism-based; set-up: scale not given: the % may be the effect or the level left; details: in vivo
Rattus norvegicus [26] = organism: Rattus norvegicus; assay: Reduction in intraocular pressure in Wistar rat model of dexamethasone-induced elevated IOP assessed as change in intraocular pressure in contralateral eye at 1 % w/v after 6 hrs by tonometry (reference value: 0%); assay type: ADME, organism-based; set-up: scale not given: the % may be the effect or the level left; details: in vivo
Rattus norvegicus [27] = organism: Rattus norvegicus; assay: Reduction in intraocular pressure in Wistar rat model of dexamethasone-induced elevated IOP assessed as onset time for reduction in intraocular pressure at 1 % w/v by tonometry; assay type: functional
Rattus norvegicus [28] = organism: Rattus norvegicus; assay: Reduction in intraocular pressure in Wistar rat model of dexamethasone-induced elevated IOP assessed as peak effect time for reduction in intraocular pressure at 1 % w/v by tonometry; assay type: functional, organism-based
Rattus norvegicus [29] = organism: Rattus norvegicus; assay: Reduction in intraocular pressure in Wistar rat model of dexamethasone-induced elevated IOP assessed as reduction in intraocular pressure at peak effect time at 1 % w/v by tonometry; assay type: functional; set-up: scale not given: the % may be the effect or the level left

SMILES	logP at 24 h [1]	Activity [2] [%]	Activity [3] [%]	Activity [4] [%]	Activity [5] [%]	Activity [6] [%]	Activity [7] [%]	IC50 [8] [µg/mL]	Activity (Rattus norvegicus [9]) [%]	Activity (Rattus norvegicus [10]) [%]	Activity (Rattus norvegicus [11]) [%]	Activity (Rattus norvegicus [12]) [%]	Activity (Rattus norvegicus [13]) [%]	Activity (Rattus norvegicus [14]) [%]	Activity (Rattus norvegicus [15]) [%]	Activity (Rattus norvegicus [16]) [%]	Activity (Rattus norvegicus [17]) [%]	Activity (Rattus norvegicus [18]) [%]	Activity (Rattus norvegicus [19]) [%]	Activity (Rattus norvegicus [20]) [%]	also measured
O=C(CN1CCN(c2ccc([N+](=O)[O-])cc2)CC1)Nc1nc2ccccc2[nH]1	1.94	16.1	33.9	44.8	51.7	64.9	76.7	95.49 (≈ 251 µM)	3.33	5.85	7.68	11.88	16	10.52	7.82	4.75	1.2	0.83	1.2	3.5	Activity (Rattus norvegicus [21]): 4.87%; Activity (Rattus norvegicus [22]): 5.23%; Activity (Rattus norvegicus [23]): 4.2%; Activity (Rattus norvegicus [24]): 1.6%; Activity (Rattus norvegicus [25]): 0%; Activity (Rattus norvegicus [26]): 0%; Time (Rattus norvegicus [27]): 0.5 h; Tmax (Rattus norvegicus [28]): 2.5 h; Activity (Rattus norvegicus [29]): 51.56%
Cl.O=S(=O)(c1cccc2cnccc12)N1CCCNCC1 [FASUDIL HYDROCHLORIDE]	1.73								4.62	5.4	10.17	16.67	9.71	9	7.8	3.42	0.65	0.97	1.95	3.3	Activity (Rattus norvegicus [21]): 5.57%; Activity (Rattus norvegicus [22]): 4.62%; Activity (Rattus norvegicus [23]): 1.85%; Activity (Rattus norvegicus [24]): 0.3%; Activity (Rattus norvegicus [25]): 0%; Activity (Rattus norvegicus [26]): 0%; Time (Rattus norvegicus [27]): 0.5 h; Tmax (Rattus norvegicus [28]): 2 h; Activity (Rattus norvegicus [29]): 54.84%
O=C(CN1CCN(Cc2ccccc2)CC1)Nc1nc2ccccc2[nH]1	1.97	6.28	22.1	33.3	47	52.6	63.9	134.71 (≈ 386 µM)	3.4	5.58	6.85	8.65	11.45	10.5	5.66	2.9	0.9	1.67	2.47	3.13	Activity (Rattus norvegicus [21]): 3.2%; Activity (Rattus norvegicus [22]): 2.72%; Activity (Rattus norvegicus [23]): 2.32%; Activity (Rattus norvegicus [24]): 1.26%; Activity (Rattus norvegicus [25]): 0.83%; Activity (Rattus norvegicus [26]): 0.47%; Time (Rattus norvegicus [27]): 0.5 h; Tmax (Rattus norvegicus [28]): 2.5 h; Activity (Rattus norvegicus [29]): 35.52%
O=C1O[C@H]([C@@H](O)CO)C(O)=C1O [ASCORBIC ACID]		39.5	54.9	62.5	79.4	92.9	97.9	15.74 (≈ 89.4 µM)													
